Experimental data taken from ChEMBL document CHEMBL4765323, “Design, synthesis, and biological evaluation of novel miconazole analogues containing selenium as potent antifungal agents” (Eur J Med Chem, 2020).
Values after ≈ are worked out from the molar mass of the structure shown. Active and inactive are the calls of the source. No cut-off for these calls is given here.

Legend:
Candida albicans [1] = test: Inhibition of CYP51 in azole-resistant Candida albicans ATCC […] assessed as ergosterol level at 0.03125 ug/ml incubated for 16 hrs by LC-MS analysis relative to control; set-up: scale not given: the % may be the effect or the level left; conditions: dose 0.03125 µg/ml
Candida albicans [2] = test: Antibiofilm activity against FCZ-Resistant Candida albicans CPCC400616 assessed as sessile minimum inhibitory concentration of biofilm formation at 80% after 3 hrs by XTT assay; format: functional
Candida albicans [3] = test: Inhibition of CYP51 in azole-resistant Candida albicans ATCC […] assessed as Eburicol level at 0.125 ug/ml incubated for 16 hrs by LC-MS analysis relative to control; set-up: scale not given: the % may be the effect or the level left; conditions: dose 0.125 µg/ml
Candida albicans [4] = test: Inhibition of CYP51 in azole-resistant Candida albicans ATCC […] assessed as Eburicol level at 8 ug/ml incubated for 16 hrs by LC-MS analysis relative to control; set-up: scale not given: the % may be the effect or the level left; conditions: dose 8.0 µg/ml
Candida albicans [5] = test: Inhibition of CYP51 in azole-resistant Candida albicans ATCC […] assessed as inhibition of ergosterol biosynthesis by measuring ergosterol content at 8 ug/ml incubated for 16 hrs by LC-MS analysis relative to control; set-up: scale not given: the % may be the effect or the level left; conditions: dose 8.0 µg/ml
Candida albicans [6] = test: Antibiofilm activity against FCZ-Resistant Candida albicans CPCC400616 assessed as sessile minimum inhibitory concentration of biofilm formation at 50% after 6 hrs by XTT assay; format: functional
Pichia kudriavzevii = test: Antifungal activity against Candida krusei AS 2.1045 measured after 24 hrs by micro-broth dilution assay; format: functional
Candida albicans [7] = test: Fungicidal activity against Candida albicans CPCC400616 at 8 times MIC measured after 4 hrs by time-kill curve assay; format: functional, organism-based
Candida albicans [8] = test: Inhibition of CYP51 in azole-resistant Candida albicans ATCC […] assessed as ergosterol level at 0.125 ug/ml incubated for 16 hrs by LC-MS analysis relative to control; set-up: scale not given: the % may be the effect or the level left; conditions: dose 0.125 µg/ml
Candida albicans [9] = test: Inhibition of CYP51 in azole-resistant Candida albicans ATCC […] assessed as Eburicol level at 0.03125 ug/ml incubated for 16 hrs by LC-MS analysis relative to control; set-up: scale not given: the % may be the effect or the level left; conditions: dose 0.03125 µg/ml
Aspergillus fumigatus = test: Antifungal activity against Aspergillus fumigatus CGMCC 3.7795 measured after 72 hrs by micro-broth dilution assay; format: functional
Erythrocyte = test: Hemolytic activity in rabbit RBC assessed as hemolysis ratio at 1 ug/ml measured after 3 hrs relative to control; format: ADME, cell-based, Oryctolagus cuniculus; conditions: dose 1 µg/ml
Candida albicans [10] = test: Inhibition of CYP51 in azole-resistant Candida albicans ATCC […] assessed as Obtusifoliol level at 0.125 ug/ml incubated for 16 hrs by LC-MS analysis relative to control; set-up: scale not given: the % may be the effect or the level left; conditions: dose 0.125 µg/ml
Cryptococcus neoformans = test: Antifungal activity against Cryptococcus neoformans CGMCC2.3161 measured after 72 hrs by micro-broth dilution assay; format: functional
Candida albicans [11] = test: Inhibition of CYP51 in azole-resistant Candida albicans ATCC […] assessed as Lanosterol level at 0.03125 ug/ml incubated for 16 hrs by LC-MS analysis relative to control; set-up: scale not given: the % may be the effect or the level left; conditions: dose 0.03125 µg/ml
Candida albicans [12] = test: Antibiofilm activity against FCZ-Resistant Candida albicans CPCC400616 assessed as sessile minimum inhibitory concentration of biofilm formation at 80% after 6 hrs by XTT assay; format: functional
Candida albicans [13] = test: Inhibition of CYP51 in azole-resistant Candida albicans ATCC […] assessed as Lanosterol level at 0.125 ug/ml incubated for 16 hrs by LC-MS analysis relative to control; set-up: scale not given: the % may be the effect or the level left; conditions: dose 0.125 µg/ml
Candida albicans [14] = test: Inhibition of CYP51 in azole-resistant Candida albicans ATCC […] assessed as Lanosterol level at 2 ug/ml incubated for 16 hrs by LC-MS analysis relative to control; set-up: scale not given: the % may be the effect or the level left; conditions: dose 2.0 µg/ml
Candida albicans [15] = test: Antibiofilm activity against FCZ-Resistant Candida albicans CPCC400616 assessed as sessile minimum inhibitory concentration of biofilm formation at 50% after 1.5 hrs by XTT assay; format: functional
Candida albicans [16] = test: Antifungal activity against Candida albicans CPCC400616 measured after 24 hrs by micro-broth dilution assay; format: functional
Candida parapsilosis = test: Antifungal activity against Candida parapsilosis ATCC 22019 measured after 24 hrs by micro-broth dilution assay; format: functional; conditions: Lodderomyces parapsilosis
Candida albicans [17] = test: Inhibition of CYP51 in azole-resistant Candida albicans ATCC […] assessed as Lanosterol level at 8 ug/ml incubated for 16 hrs by LC-MS analysis relative to control; set-up: scale not given: the % may be the effect or the level left; conditions: dose 8.0 µg/ml
[Candida] zeylanoides = Antifungal activity against Candida zeylanoides CMGCC2.3739 measured after 24 hrs by micro-broth dilution assay; format: functional; conditions: Dujonia zeylanoides
Candida albicans [18] = test: Antifungal activity against fluconazole-resistant Candida albicans strain 904 measured after 24 hrs by micro-broth dilution assay; format: functional
Candida albicans [19] = test: Inhibition of CYP51 in azole-resistant Candida albicans ATCC […] assessed as Eburicol level at 2 ug/ml incubated for 16 hrs by LC-MS analysis relative to control; set-up: scale not given: the % may be the effect or the level left; conditions: dose 2.0 µg/ml
Candida albicans [20] = test: Antifungal activity against fluconazole-resistant Candida albicans CaR measured after 24 hrs by micro-broth dilution assay; format: functional
Candida albicans [21] = test: Antifungal activity against Candida albicans ATCC SC5314 measured after 24 hrs by micro-broth dilution assay; format: functional
Candida albicans [22] = test: Fungicidal activity against Candida albicans CPCC400616 measured after 48 hrs; format: functional
Candida albicans [23] = test: Inhibition of CYP51 in azole-resistant Candida albicans ATCC […] assessed as Obtusifoliol level at 0.5 ug/ml incubated for 16 hrs by LC-MS analysis relative to control; set-up: scale not given: the % may be the effect or the level left; conditions: dose 0.5 µg/ml
Candida albicans [24] = test: Antibiofilm activity against FCZ-Resistant Candida albicans CPCC400616 assessed as sessile minimum inhibitory concentration of biofilm formation at 80% after 1.5 hrs by XTT assay; format: functional
Candida albicans [25] = test: Inhibition of CYP51 in azole-resistant Candida albicans ATCC […] assessed as Obtusifoliol level at 2 ug/ml incubated for 16 hrs by LC-MS analysis relative to control; set-up: scale not given: the % may be the effect or the level left; conditions: dose 2.0 µg/ml
Candida albicans [26] = test: Inhibition of CYP51 in azole-resistant Candida albicans ATCC […] assessed as ergosterol level at 2 ug/ml incubated for 16 hrs by LC-MS analysis relative to control; set-up: scale not given: the % may be the effect or the level left; conditions: dose 2.0 µg/ml
Candida albicans [27] = test: Fungicidal activity against Candida albicans CPCC400616 at MIC to 8 times MIC measured after 24 hrs by time-kill curve assay; format: functional
Candida albicans [28] = test: Inhibition of CYP51 in azole-resistant Candida albicans ATCC […] assessed as Lanosterol level at 0.5 ug/ml incubated for 16 hrs by LC-MS analysis relative to control; set-up: scale not given: the % may be the effect or the level left; conditions: dose 0.5 µg/ml
[29] = Ratio of MFC for fungicidal activity against Candida albicans CPCC400616 to MIC for Antifungal activity against Candida albicans CPCC400616; format: functional; conditions: time 24 hrs
Nakaseomyces glabratus = test: Antifungal activity against clinical isolate Candida glabrata measured after 24 hrs by micro-broth dilution assay; format: functional
Candida albicans [30] = test: Inhibition of CYP51 in azole-resistant Candida albicans ATCC […] assessed as Obtusifoliol level at 0.03125 ug/ml incubated for 16 hrs by LC-MS analysis relative to control; set-up: scale not given: the % may be the effect or the level left; conditions: dose 0.03125 µg/ml
Candida albicans [31] = test: Antibiofilm activity against FCZ-Resistant Candida albicans CPCC400616 assessed as sessile minimum inhibitory concentration of biofilm formation at 50% after 24 hrs by XTT assay; format: functional
Candida albicans [32] = test: Antifungal activity against fluconazole-resistant Candida albicans 17 measured after 24 hrs by micro-broth dilution assay; format: functional
Candida albicans [33] = test: Antibiofilm activity against FCZ-Resistant Candida albicans CPCC400616 assessed as sessile minimum inhibitory concentration of biofilm formation at 80% after 24 hrs by XTT assay; format: functional
Candida albicans [34] = test: Inhibition of CYP51 in azole-resistant Candida albicans ATCC […] assessed as ergosterol level at 0.5 ug/ml incubated for 16 hrs by LC-MS analysis relative to control; set-up: scale not given: the % may be the effect or the level left; conditions: dose 0.5 µg/ml
Candida albicans [35] = test: Antifungal activity against fluconazole-resistant Candida albicans 632 measured after 24 hrs by micro-broth dilution assay; format: functional
Candida albicans [36] = test: Inhibition of CYP51 in azole-resistant Candida albicans ATCC […] assessed as Eburicol level at 0.5 ug/ml incubated for 16 hrs by LC-MS analysis relative to control; set-up: scale not given: the % may be the effect or the level left; conditions: dose 0.5 µg/ml
Candida albicans [37] = test: Antifungal activity against Candida albicans 901 measured after 24 hrs by micro-broth dilution assay; format: functional
[38] = Ratio of hemolysis activity in rabbit RBC to MIC for Candida albicans; format: toxicity; conditions: rabbit red blood cells (RBC)
Candida albicans [39] = test: Inhibition of CYP51 in azole-resistant Candida albicans ATCC […] assessed as Obtusifoliol level at 8 ug/ml incubated for 16 hrs by LC-MS analysis relative to control; set-up: scale not given: the % may be the effect or the level left; conditions: dose 8.0 µg/ml
Candida albicans [40] = test: Antibiofilm activity against FCZ-Resistant Candida albicans CPCC400616 assessed as sessile minimum inhibitory concentration of biofilm formation at 50% after 3 hrs by XTT assay; format: functional

## Clc1ccc(C(Cn2ccnc2)[Se]Cc2ccccc2Cl)c(Cl)c1 (configuration not stated)
Candida albicans [1]
  Activity: 86.4%
Candida albicans [2]
  Activity: 64 µg/mL
Candida albicans [3]
  Activity: 5.3%
Candida albicans [4]
  Activity: 64.6%
Candida albicans [5]
  Activity: 77.7%
Candida albicans [6]
  Activity: 128 µg/mL
Pichia kudriavzevii
  MIC: 0.13 µg/mL (≈ 0.292 µM)
Candida albicans [7]
  Activity: Active
Candida albicans [8]
  Activity: 80.3%
Candida albicans [9]
  Activity: 7.4%
Aspergillus fumigatus
  MIC: 2 µg/mL (≈ 4.5 µM)
Erythrocyte
  Activity: 0 µg/mL
Candida albicans [10]
  Activity: 9.5%
Cryptococcus neoformans
  MIC: 0.25 µg/mL (≈ 0.562 µM)
Candida albicans [11]
  Activity: 0%
Candida albicans [12]
  Activity: >128 µg/mL
Candida albicans [13]
  Activity: 11.6%
Candida albicans [14]
  Activity: 13.6%
Candida albicans [15]
  Activity: 4 µg/mL
Candida albicans [16]
  MIC: 0.02 µg/mL (≈ 0.045 µM)
Candida parapsilosis
  MIC: 0.13 µg/mL (≈ 0.292 µM)
Candida albicans [17]
  Activity: 12.4%
[Candida] zeylanoides
  MIC: 1 µg/mL (≈ 2.25 µM)
Candida albicans [18]
  MIC: 0.25 µg/mL (≈ 0.562 µM)
Candida albicans [19]
  Activity: 75.1%
Candida albicans [20]
  MIC: 0.06 µg/mL (≈ 0.135 µM)
Candida albicans [21]
  MIC: 0.01 µg/mL (≈ 0.0225 µM)
Candida albicans [22]
  MIC: 0.125 µg/mL (≈ 0.281 µM)
Candida albicans [23]
  Activity: 17.4%
Candida albicans [24]
  Activity: 8 µg/mL
Candida albicans [25]
  Activity: 7.8%
Candida albicans [26]
  Activity: 19.8%
Candida albicans [27]
  Activity: >3 log10CFU/ml
Candida albicans [28]
  Activity: 10%
[29]
  MFC/MIC ratio: 8
Nakaseomyces glabratus
  MIC: 0.5 µg/mL (≈ 1.12 µM)
Candida albicans [30]
  Activity: 1%
Candida albicans [31]
  Activity: >128 µg/mL
Candida albicans [32]
  MIC: 0.13 µg/mL (≈ 0.292 µM)
Candida albicans [33]
  Activity: >128 µg/mL
Candida albicans [34]
  Activity: 78.9%
Candida albicans [35]
  MIC: 1 µg/mL (≈ 2.25 µM)
Candida albicans [36]
  Activity: 70.3%
Candida albicans [37]
  MIC: 0.5 µg/mL (≈ 1.12 µM)
[38]
  selectivity ratio: 256
Candida albicans [39]
  Activity: 8.1%
Candida albicans [40]
  Activity: 16 µg/mL
